The test system of the assay is Calu-6 human lung cancer cells. Briefly: Cell proliferation-inhibiting activity, Calu-6 (CellTiter-Glo, ATP in viable cells). The note with it: Calu-6, 96 h, Table 3, 4 days culture. The class given is cell-based. The method, then:
The cell proliferation-inhibiting activity of the compounds listed in Table 3 below was evaluated by measuring the amount of ATP in viable cells as described below.
The test compound was serially diluted with DMSO and then diluted 25-fold with Ca^2+, Mg^2+-free phosphate-buffered saline, and was then dispensed into a 96-well plate at 5 μL per well. A cell suspension containing the below indicated concentration of A549, Calu-6 or NCI-H2122 human lung cancer cells (all obtained from ATCC) was prepared using the below indicated medium with the addition of 10% fetal bovine serum (Sigma). The cell suspension was dispensed into the test compound-added plate at 95 μL per well and cultured in a 5% carbon dioxide gas incubator at 37° C. After 4 days, 80 μL of CellTiter-Glo (registered trademark) (Promega Corp.) was added to each well and the bioluminescence was measured with a fluorescent plate reader.
Calu-6: Eagle's Minimum Essential Medium (Sigma); 4000 cells/95 μL
(In general: ATP-based viability assays read luminescence as a measure of living cells.)

This note sets out measurements from US11964950B2, “Arylamide derivative having antitumor activity” (priority 2020, dated 2024).

As a reminder, the IC50 is the concentration that inhibits the measured activity by half.

On to `CCNS(=O)(=O)Nc1nccc(Cc2cc(C(N)=O)c(Nc3ccc(I)cc3F)cc2F)c1F` [1-2, 5-[[2-(Ethylsulfamoylamino)-3-fluoropyridin-4-yl]methyl]-4-fluoro-2-(2-fluoro-4-iodoanilino)benzamide], for which the IC50 turned out to be 103 nM. The result for `CCS(=O)(=O)Nc1nccc(Cc2cc(C(N)=O)c(Nc3ccc(I)cc3F)c(F)c2F)c1F` [A-38, 5-[[2-(Ethylsulfonylamino)-3-fluoropyridin-4-yl]methyl]-3,4-difluoro-2-(2-fluoro-4-iodoanilino)benzamide] reads 122 nM. `CC1(NS(=O)(=O)Nc2nccc(Cc3cc(C(=O)NC4CC4)c(Nc4ccc(I)cc4F)c(F)c3F)c2F)CCC1` [A-47, N-Cyclopropyl-3,4-difluoro-2-(2-fluoro-4-iodoanilino)-5-[[3-fluoro-2-[(1-methylcyclobutyl)sulfamoylamino]pyridin-4-yl]methyl]benzamide] registered an IC50 of 104 nM. In turn, `CCCS(=O)(=O)Nc1nccc(Cc2cc(C(N)=O)c(Nc3ccc(I)cc3F)c(F)c2F)c1F` [B-8, 3,4-Difluoro-2-(2-fluoro-4-iodoanilino)-5-[[3-fluoro-2-(propylsulfonylamino)pyridin-4-yl]methyl]benzamide] had an IC50 of 233 nM.

The compound `CCS(=O)(=O)Nc1cccc(Cc2cc(C(=O)NC3CC3)c(Nc3ccc(I)cc3F)c(F)c2F)c1F` [D-8, N-Cyclopropyl-5-[[3-(ethylsulfonylamino)-2-fluorophenyl]methyl]-3,4-difluoro-2-(2-fluoro-4-iodoanilino)benzamide] gave a half-maximal inhibitory concentration (IC50) of 112 nM. The result for `CC1(NS(=O)(=O)Nc2cccc(Cc3cc(C(=O)NC4CC4)c(Nc4ccc(I)cc4F)c(F)c3F)c2F)CCC1` [D-10, N-Cyclopropyl-3,4-difluoro-2-(2-fluoro-4-iodoanilino)-5-[[2-fluoro-3-[(1-methylcyclobutyl)sulfamoylamino]phenyl]methyl]benzamide] reads 307 nM; that for `NC(=O)c1cc(Cc2cccc(NS(=O)(=O)CCCF)c2F)c(F)c(F)c1Nc1ccc(I)cc1F` [E-15, 3,4-Difluoro-5-[[2-fluoro-3-(3-fluoropropylsulfonylamino)phenyl]methyl]-2-(2-fluoro-4-iodoanilino)benzamide], 152 nM. `CCCS(=O)(=O)Nc1cccc(Cc2cc(C(N)=O)c(Nc3ccc(I)cc3F)c(F)c2F)c1F` [E-18, 3,4-Difluoro-2-(2-fluoro-4-iodoanilino)-5-[[2-fluoro-3-(propylsulfonylamino)phenyl]methyl]benzamide] showed an IC50 of 122 nM. Take `NC(=O)c1cc(Cc2cccc(NS(=O)(=O)C3CCC3)c2F)c(F)c(F)c1Nc1ccc(I)cc1F` [E-20, 5-[[3-(Cyclobulsulfonylamino)-2-fluorophenyl]methyl]-3,4-difluoro-2-(2-fluoro-4-iodoanilino)benzamide]: inhibition was half-maximal at 103 nM (IC50). Consider `NC(=O)c1cc(Cc2cccc(NS(=O)(=O)C3COC3)c2F)c(F)c(F)c1Nc1ccc(I)cc1F` [E-21, 3,4-Difluoro-2-(2-fluoro-4-iodoanilino)-5-[[2-fluoro-3-(oxetan-3-ylsulfonylamino)phenyl]methyl]benzamide], for which the IC50 was found to be 109 nM. The result for `COCCS(=O)(=O)Nc1cccc(Cc2cc(C(N)=O)c(Nc3ccc(I)cc3F)c(F)c2F)c1` [F-3, 3,4-Difluoro-2-(2-fluoro-4-iodoanilino)-5-[[3-(2-methoxyethylsulfonylamino)phenyl]methyl]benzamide] reads 118 nM. `CNS(=O)(=O)Nc1nccc(Cc2cc(C(=O)NOC)c(Nc3ccc(Cl)cc3F)c(F)c2F)c1F` [G-4, 2-(4-Chloro-2-fluoroanilino)-3,4-difluoro-5-[[3-fluoro-2-(methylsulfamoylamino)pyridin-4-yl]methyl]-N-methoxybenzamide] gave an IC50 of 259 nM.

`CCS(=O)(=O)Nc1nccc(Cc2cc(C(=O)NC3CC3)c(Nc3ccc(C4CC4)cc3F)c(F)c2F)c1F` [G-7, N-Cyclopropyl-2-(4-cyclopropyl-2-fluoroanilino)-5-[[2-(ethylsulfonylamino)-3-fluoropyridin-4-yl]methyl]-3,4-difluorobenzamide] came in with an IC50 of 443 nM.
